Assay results published in patent US6620593B1, “Method for safety evaluation of chemical compound using recombinant yeast expressing human cytochrome P450” (Sumitomo Chemical Company, Limited, priority 1993, dated 2003).
Where two headings read alike, the source gives them in different places.

Key:
human P450 2E1 [1] = target: T1, human P450 2E1 (Homo sapiens, UniProt P05181); experiment: Ames test using yeast S-9 Mix fraction and microsomal fraction, human P450 2E1 as metabolic activation source; type: cell-based
Text: (§1) The toxic effects, in particular mutagenicity, of the resulting metabolites can be determined by a conventional biological analytic method such as the Ames Test. For example, the metabolites present in the reaction solution are allowed to react with mutant bacteria such as histidine requiring Salmonella strain (Salmonella typhimurium (his−)), or tryptophan requiring Escherichia coil (Escherichia coil (trp−)), and then determine whether the metabolites cause the back mutation of the bacteria whether the colonies of revertant which is not requiring the amino acid (His+ or Trp+) are formed, and, if formed, how many colonies. In place of the bacteria, mammalian cells such as MCL-5 cells, which are sensitive to cell toxicity of a chemical compound (U.S. Pat. No. 4,532,204), can be used.
(§2) The Ames test method was in accordance with the customary method described, for example, in Mutat. Res., (1975) 31, 347. 2-Aminoanthrathene which is an arylamine type compound was used as a specimen compound. (1) Rat S-9 Mix supernatant fraction (obtained by homogenizing liver and then subjected to centrifugation (9000×g, 10 min), manufactured by Kikkoman) containing each kind of rat P450 molecular species at the concentration of 1200 pmol per 1 sample and (2) Yeast S-9 Mix fraction obtained from each kind of yeast cells expressing human P450 or a microsomal fraction prepared from the yeast S-9 Mix fraction were used as a metabolic activation source in the Ames test.

[2] = test system: human cytochrome P450 3A4; experiment: Ames test using yeast S-9 Mix fraction and microsomal fraction, human P450 3A4 as metabolic activation source; type: cell-based
Text: as §1
(§3) The Ames test method was in accordance with the customary method described, for example, in Mutat. Res., (1975) 31, 347. 2-Aminoanthrathene which is an arylamine type compound was used as a specimen compound. […]

[3] = target: T2, human cytochrome P450 2C8 (Homo sapiens, UniProt P10632); experiment: Ames test using yeast S-9 Mix fraction and microsomal fraction, human P450 2C8 as metabolic activation source; type: cell-based
T2 construct: The entire protein coding region of the P450 2C8 gene was amplified by the PCR method; made in house; host or cells: Saccharomyces cerevisiae AH22 (whole transformed cells, S-9 Mix or microsomal fractions)
T2 sequence (P10632 1-490): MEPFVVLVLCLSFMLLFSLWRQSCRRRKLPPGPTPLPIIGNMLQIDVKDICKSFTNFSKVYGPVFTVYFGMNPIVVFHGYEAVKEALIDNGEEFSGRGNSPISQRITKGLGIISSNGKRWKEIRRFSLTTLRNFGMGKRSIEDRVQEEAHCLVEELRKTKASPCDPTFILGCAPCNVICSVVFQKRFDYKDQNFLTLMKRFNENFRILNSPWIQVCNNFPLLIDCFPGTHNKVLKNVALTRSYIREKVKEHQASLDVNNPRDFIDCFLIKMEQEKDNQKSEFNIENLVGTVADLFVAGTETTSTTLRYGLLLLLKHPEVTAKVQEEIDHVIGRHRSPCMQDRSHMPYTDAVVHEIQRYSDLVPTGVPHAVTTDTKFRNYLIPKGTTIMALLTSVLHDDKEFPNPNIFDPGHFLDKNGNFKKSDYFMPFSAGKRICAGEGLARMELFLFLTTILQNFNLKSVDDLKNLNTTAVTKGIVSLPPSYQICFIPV
Text: as §1, §3

[4] = test system: human cytochrome P450 2A6; experiment: Ames test using yeast S-9 Mix fraction and microsomal fraction, human P450 2A6 as metabolic activation source; type: cell-based
Text: as §1, §3

human P450 1A2 [5] = target: T3, human P450 1A2 (Homo sapiens, UniProt P05177); experiment: Ames test using yeast S-9 Mix fraction and microsomal fraction, human P450 1A2 as metabolic activation source; type: cell-based; set-up: made in house; host or cells: Saccharomyces cerevisiae AH22 (whole transformed cells, S-9 Mix or microsomal fractions)
T3 sequence (P05177 1-516): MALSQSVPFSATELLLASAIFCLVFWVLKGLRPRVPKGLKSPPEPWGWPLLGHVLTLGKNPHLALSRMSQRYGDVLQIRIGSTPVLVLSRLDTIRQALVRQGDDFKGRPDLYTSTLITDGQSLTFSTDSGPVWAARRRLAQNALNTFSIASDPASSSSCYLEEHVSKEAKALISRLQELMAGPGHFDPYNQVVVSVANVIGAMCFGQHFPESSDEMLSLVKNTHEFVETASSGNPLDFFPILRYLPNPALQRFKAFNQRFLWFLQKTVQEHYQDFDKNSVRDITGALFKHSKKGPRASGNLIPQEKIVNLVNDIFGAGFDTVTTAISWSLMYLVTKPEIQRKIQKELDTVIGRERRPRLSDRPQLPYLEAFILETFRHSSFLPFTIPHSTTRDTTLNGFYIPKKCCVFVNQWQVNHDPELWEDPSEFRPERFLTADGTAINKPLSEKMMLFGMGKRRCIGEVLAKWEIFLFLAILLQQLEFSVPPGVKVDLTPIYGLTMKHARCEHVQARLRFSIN
Text: as §1, §2

human P450 1A2 [6] = target: T3, human P450 1A2; experiment: Metabolism (hydroxylation) of substrates using transformed yeast cells or their microsomal fractions expressing human P450 1A2 and yeast NADPH-P450 reductase; conditions: microsomes
Method: (§4) Then 2 ml of dichloromethane was added.

human P450 2C9 = human P450 2C9 (Homo sapiens, UniProt P11712); experiment: Metabolism (hydroxylation) of substrates using transformed yeast cells or microsomal fractions expressing human P450 2C9; conditions: microsomes
Method: as §4

human P450 2E1 [7] = target: T1, human P450 2E1; experiment: Metabolism (hydroxylation) of substrates using transformed yeast cells or microsomal fractions expressing human P450 2E1; conditions: microsomes
Method: as §4

human P450 3A4 = experiment: Metabolism (hydroxylation) of substrates using transformed yeast cells or microsomal fractions expressing human P450 3A4; conditions: microsomes
Method: as §4

human P450 2A6 = experiment: Metabolism (hydroxylation) of substrates using transformed yeast cells or microsomal fractions expressing human P450 2A6; conditions: microsomes
Method: as §4

human P450 2B6 = target: T4, human P450 2B6 (Homo sapiens, UniProt P20813); experiment: Metabolism (hydroxylation) of substrates using transformed yeast cells or microsomal fractions expressing human P450 2B6; conditions: microsomes
T4 sequence (P20813 1-491): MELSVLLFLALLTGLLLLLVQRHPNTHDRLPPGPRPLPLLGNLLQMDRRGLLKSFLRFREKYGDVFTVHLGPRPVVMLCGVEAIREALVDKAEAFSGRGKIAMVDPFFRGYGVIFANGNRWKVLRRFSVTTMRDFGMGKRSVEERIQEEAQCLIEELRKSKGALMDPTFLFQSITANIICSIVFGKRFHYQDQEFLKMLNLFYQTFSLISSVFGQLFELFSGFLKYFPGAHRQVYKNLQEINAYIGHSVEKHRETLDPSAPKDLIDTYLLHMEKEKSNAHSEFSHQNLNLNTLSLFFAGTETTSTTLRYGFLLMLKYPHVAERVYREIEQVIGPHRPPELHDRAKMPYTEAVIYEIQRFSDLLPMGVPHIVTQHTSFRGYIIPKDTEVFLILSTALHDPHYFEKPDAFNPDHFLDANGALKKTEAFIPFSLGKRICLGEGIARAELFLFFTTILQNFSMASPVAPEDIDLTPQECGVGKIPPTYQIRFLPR
Method: as §4

human P450 2C8 = experiment: Metabolism (hydroxylation) of substrates using transformed yeast cells or microsomal fractions expressing human P450 2C8; conditions: microsomes
Method: as §4

human P450 2C18 = target: T5, human P450 2C18 (Homo sapiens, UniProt P33260); experiment: Metabolism (hydroxylation) of substrates using transformed yeast cells or microsomal fractions expressing human P450 2C18; conditions: microsomes
T5 sequence (P33260 26-490): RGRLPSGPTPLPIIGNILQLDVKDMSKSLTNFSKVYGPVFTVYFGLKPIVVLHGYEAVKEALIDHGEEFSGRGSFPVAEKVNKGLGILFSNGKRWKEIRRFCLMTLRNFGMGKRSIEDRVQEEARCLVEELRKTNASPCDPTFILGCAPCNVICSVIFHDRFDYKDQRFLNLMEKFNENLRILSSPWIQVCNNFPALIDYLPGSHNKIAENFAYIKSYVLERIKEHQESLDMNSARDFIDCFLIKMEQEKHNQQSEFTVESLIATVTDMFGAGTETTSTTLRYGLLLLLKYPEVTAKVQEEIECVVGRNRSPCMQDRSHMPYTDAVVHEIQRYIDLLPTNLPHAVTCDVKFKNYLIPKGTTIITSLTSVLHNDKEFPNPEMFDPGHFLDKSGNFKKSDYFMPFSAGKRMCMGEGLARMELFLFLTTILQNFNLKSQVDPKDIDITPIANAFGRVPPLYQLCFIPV
Method: as §4

human P450 2C19 = human P450 2C19 (Homo sapiens, UniProt P33261); experiment: Metabolism (hydroxylation) of substrates using transformed yeast cells or microsomal fractions expressing human P450 2C19; conditions: microsomes
Method: as §4

human P450 2D6 = experiment: Metabolism (hydroxylation) of substrates using transformed yeast cells or microsomal fractions expressing human P450 2D6; conditions: microsomes
Method: as §4

human P450 1A1 = target: T6, human P450 1A1 (Homo sapiens, UniProt P04798); conditions: microsomes
T6 sequence (P04798 1-512): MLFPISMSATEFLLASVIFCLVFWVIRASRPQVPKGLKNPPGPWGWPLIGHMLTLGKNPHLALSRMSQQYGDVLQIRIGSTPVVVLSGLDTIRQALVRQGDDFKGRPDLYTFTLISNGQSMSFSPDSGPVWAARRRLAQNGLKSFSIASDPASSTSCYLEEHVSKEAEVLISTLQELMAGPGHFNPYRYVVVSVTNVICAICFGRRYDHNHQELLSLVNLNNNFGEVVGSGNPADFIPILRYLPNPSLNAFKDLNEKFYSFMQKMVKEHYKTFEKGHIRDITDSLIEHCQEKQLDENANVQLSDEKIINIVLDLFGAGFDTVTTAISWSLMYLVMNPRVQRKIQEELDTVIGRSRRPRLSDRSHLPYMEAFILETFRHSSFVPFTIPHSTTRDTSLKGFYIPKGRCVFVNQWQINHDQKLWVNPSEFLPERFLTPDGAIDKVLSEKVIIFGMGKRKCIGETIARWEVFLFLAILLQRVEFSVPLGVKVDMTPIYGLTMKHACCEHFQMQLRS
Method: (§5) To the supernatant, 2 ml of dichloromethane was added. After sufficient stirring, the dichloromethane layer was recovered by centrifugation (5000×g, 10 min), and the solvent was evaporated under reduced pressure. The resultant residue was dissolved in 100 μl of acetonitrile, and the solution was analyzed by HPLC under the following conditions.
(§6) Then 2 ml of dichloromethane was added. After sufficient stirring, the solution was centrifuged again (5000×g, 10 min). The dichloromethane layer was recovered from the separated layer and the solvent was evaporated under reduced pressure. The resultant residue was dissolved in 100 μl of acetonitrile, and the solution was analyzed by HPLC under the following conditions.
Then 2 ml of dichloromethane was added to the supernatant and vigorously stirred and centrifuged (5000×g, 10 min). The dichloromethane layer was recovered from the separated layer, then evaporated under reduced pressure. The obtained residue was dissolved in 100 μl of acetonitrile, and the solution was analyzed by HPLC under the following conditions.
Then 2 ml of dichloromethane was added to the solution, and the solution was stirred vigorously and centrifuged (15,000×g, 5 min). The dichloromethane layer was recovered, and the solvent was removed under reduced pressure. The obtained residue was dissolved in 100 μl of acetonitrile and the solution was subjected to analysis by HPLC under the same conditions as above.
Then the solution was centrifuged (5000×g, 10 min) to give a supernatant. The obtained supernatant solution was subjected to the HPLC analysis under the following conditions.
(§7) Then the solution was centrifuged (5000×g, 10 min) to give a supernatant. 62.5 μl of 15% trichloroacetic acid and 2 ml of chloroform were added to the obtained supernatant solution, and the resultant solution was stirred well. The chloroform layer was recovered from the separated layer. Then 4 ml of sodium hydroxide solution containing 0.1 M NaCl was added to the solution and centrifuged again (5000×g, 10 min).
Then perchlorate was added to the solution, so that the final concentration of the perchlorate was 10% (v/v). The solution was sufficiently stirred and centrifuged (15,000×g, 15 min) to give the supernatant. The obtained supernatant was subjected to HPLC analysis according to the following conditions.
Then the solution was diluted with equal volume of methanol, sufficiently stirred and centrifuged (15,000×g, 5 min) to give the supernatant. The obtained supernatant was subjected to HPLC analysis according to the following conditions.

[8] = test system: other human P450 molecular species
Method: as §5, §6, §7
Then perchlorate was added to the solution, so that the final concentration of the perchlorate was 10% (v/v). The solution was sufficiently stirred and centrifuged (15,000×g, 15 min) to give the supernatant. […]

[9] = Table 1 hydroxylation activity, metabolic activation in Ames test
[10] = compound at 1 μg/plate (90 mm dia.), yeast S-9 Mix fraction and microsomal fraction

human P450 2C9, sequence (P11712 whole entry): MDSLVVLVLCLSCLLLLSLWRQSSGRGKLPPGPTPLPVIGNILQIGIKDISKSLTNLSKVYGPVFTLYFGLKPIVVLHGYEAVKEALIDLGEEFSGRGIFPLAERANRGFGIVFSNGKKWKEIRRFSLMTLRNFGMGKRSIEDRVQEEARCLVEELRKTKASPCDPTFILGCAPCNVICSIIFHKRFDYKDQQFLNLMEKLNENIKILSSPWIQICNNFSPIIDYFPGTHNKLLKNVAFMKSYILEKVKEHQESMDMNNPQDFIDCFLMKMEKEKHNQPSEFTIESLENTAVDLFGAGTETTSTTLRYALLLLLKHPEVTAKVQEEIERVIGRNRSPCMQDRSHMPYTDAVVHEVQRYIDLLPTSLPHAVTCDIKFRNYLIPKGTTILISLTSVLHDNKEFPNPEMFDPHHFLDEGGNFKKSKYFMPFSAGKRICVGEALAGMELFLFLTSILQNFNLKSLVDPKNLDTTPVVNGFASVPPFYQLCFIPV
human P450 2C19, sequence (P33261 whole entry): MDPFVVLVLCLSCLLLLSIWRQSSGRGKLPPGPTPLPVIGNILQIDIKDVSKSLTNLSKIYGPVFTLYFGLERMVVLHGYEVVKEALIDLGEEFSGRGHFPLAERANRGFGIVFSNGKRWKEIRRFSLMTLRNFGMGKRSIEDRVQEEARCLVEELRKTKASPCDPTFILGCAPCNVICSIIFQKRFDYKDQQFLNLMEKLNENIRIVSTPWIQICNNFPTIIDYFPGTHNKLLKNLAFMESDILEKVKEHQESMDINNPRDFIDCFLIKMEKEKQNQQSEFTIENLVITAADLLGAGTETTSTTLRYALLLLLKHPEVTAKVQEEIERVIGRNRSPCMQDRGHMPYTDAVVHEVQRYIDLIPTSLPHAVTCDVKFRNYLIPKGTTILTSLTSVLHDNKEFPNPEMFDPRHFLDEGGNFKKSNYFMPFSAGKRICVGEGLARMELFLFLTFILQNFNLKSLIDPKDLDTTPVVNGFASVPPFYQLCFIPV
T1 sequence (P05181 whole entry): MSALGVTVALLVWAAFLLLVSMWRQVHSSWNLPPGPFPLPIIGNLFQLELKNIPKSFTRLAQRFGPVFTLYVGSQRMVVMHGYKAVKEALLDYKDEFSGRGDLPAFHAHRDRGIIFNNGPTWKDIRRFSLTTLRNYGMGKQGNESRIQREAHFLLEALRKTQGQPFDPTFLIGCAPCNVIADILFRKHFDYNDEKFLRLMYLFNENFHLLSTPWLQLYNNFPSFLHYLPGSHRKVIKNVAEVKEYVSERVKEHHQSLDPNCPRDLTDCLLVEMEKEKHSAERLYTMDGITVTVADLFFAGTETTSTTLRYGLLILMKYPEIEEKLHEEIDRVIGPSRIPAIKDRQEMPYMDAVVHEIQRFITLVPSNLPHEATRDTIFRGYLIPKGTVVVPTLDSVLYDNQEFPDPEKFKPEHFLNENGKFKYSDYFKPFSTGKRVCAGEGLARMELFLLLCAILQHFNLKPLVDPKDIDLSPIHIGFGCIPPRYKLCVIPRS

Row | Compound | Hydroxylation activity, human P450 1A2 (human P450 1A2 [6]) | Hydroxylation activity, human P450 2C9 (human P450 2C9) | Hydroxylation activity, human P450 2E1 (human P450 2E1 [7]) | Hydroxylation activity, human P450 3A4 (human P450 3A4) | Hydroxylation activity, human P450 2A6 (human P450 2A6) | Hydroxylation activity, human P450 2B6 (human P450 2B6) | Hydroxylation activity, human P450 2C8 (human P450 2C8) | Hydroxylation activity, human P450 2C18 (human P450 2C18) | Hydroxylation activity, human P450 2C19 (human P450 2C19) | Hydroxylation activity, human P450 2D6 (human P450 2D6) | Hydroxylation activity, human P450 1A1 (human P450 1A1) | further results
1 | Nc1ccc2cc3ccccc3cc2c1 [2-Aminoanthracene] |  |  |  |  |  |  |  |  |  |  |  | Ames test activity in words, human P450 2E1 (human P450 2E1 [1]): moderate activity; Activity in Table 1 for 2-aminoanthracene (Ames test), human P450 2E1 (human P450 2E1 [1]; [9]): + +; Revertant colonies detected, yeast expressing human P450 2E1 (AH22/p2E1R) (human P450 2E1 [1]; [10]): more than 1000 revertant colonies; Ames test revertant colonies in words, human cytochrome P450 3A4 [2]: not found; Activity in Table 1 for 2-aminoanthracene (Ames test), human P450 3A4 [2, 9]: −; Ames test revertant colonies in words, human cytochrome P450 2C8 [3]: not found; Activity in Table 1 for 2-aminoanthracene (Ames test), human P450 2C8 [3, 9]: −; Ames test revertant colonies in words, human cytochrome P450 2A6 [4]: not found; Activity in Table 1 for 2-aminoanthracene (Ames test), human P450 2A6 [4, 9]: −; Ames test activity in words, human cytochrome P450 1A2 (human P450 1A2 [5]): high activity; Concentration at which mutagenicity can be detected (human P450 1A2 [5]; 20 pmol of P450 1A2 used): about 0.1 μg; Activity in Table 1 for 2-aminoanthracene (Ames test), human P450 1A2 (human P450 1A2 [5]; [9]): + + +; Revertant colonies detected, yeast expressing human P450 1A2 (AH22/p1A2R) (human P450 1A2 [5]; [10]): more than 1000 revertant colonies
2 | CCOc1ccc2ccc(=O)oc2c1 [7-Ethoxycoumarin] | + + | + | + + | + | + + | + + + | + | + | + | + + | + + + | 
3 | CCCCNC(=O)NS(=O)(=O)c1ccc(C)cc1 [Tolbutamide] | − |  | − |  | − | − | + | + | + + | − | − | Hydroxylated metabolite / hydroxylation activity with yeast expressing other human P450 than those named ([8]; microsomes): not detected

The next lines start with results.

Row | Hydroxylation activity, human P450 1A2 (human P450 1A2 [6]) | Hydroxylation activity, human P450 2C9 (human P450 2C9) | Hydroxylation activity, human P450 2E1 (human P450 2E1 [7]) | Hydroxylation activity, human P450 3A4 (human P450 3A4) | Hydroxylation activity, human P450 2A6 (human P450 2A6) | Hydroxylation activity, human P450 2B6 (human P450 2B6) | Hydroxylation activity, human P450 2C8 (human P450 2C8) | Hydroxylation activity, human P450 2C18 (human P450 2C18) | Hydroxylation activity, human P450 2C19 (human P450 2C19) | Hydroxylation activity, human P450 2D6 (human P450 2D6) | Hydroxylation activity, human P450 1A1 (human P450 1A1) | Compound | further results
4 | + + + | + + | + + | + | + + | + + | + + | + + | + + | + + + | + + | CC(=O)Nc1ccccc1 [Acetanilide] | 
5 | − | − | − | − | + + + | − | − | − | − | − | − | O=c1ccc2ccccc2o1 [Coumarin] | Hydroxylated metabolite / hydroxylation activity with yeast expressing other human P450 than those named [8]: no activity
